Like-named read-outs stand apart in the source and are kept apart here.
Molecular target: T1, F508delCFTR (Homo sapiens, UniProt P13569, DEL508-508)
T1 construct: expressed in transfected cells; host or cells: CFBE41o- human lung-derived epithelial cells (CFBE4lo-F508delCFTR-HRP), doxycycline-inducible
Experiment: Cell Surface Expression-Horse Radish Peroxidase (CSE-HRP) Assay;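 as to Maximum % activity (with co-corrector): co-corrector and positive control are both the same reference corrector at 2 µM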;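 as to Maximum % activity (without co-corrector): percent of the 2 µM on-plate positive control corrector response above DMSO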
Type: cell-based
Conditions: for Maximum % activity (with co-corrector) / Emax: maximum at any tested concentration, normalized to on-plate positive control; for Emax: read-out: Maximum % activity (without co-corrector)

[1] = CSE-HRP, test compound without co-corrector, read-out: EC50 (without co-corrector)
[2] = CSE-HRP, with co-corrector (2 μM of 3-[(2R,4R)-4-({[1-(2,2-difluoro-1,3-benzodioxol-5-yl)cyclopropyl]carbonyl}amino)-7-methoxy-3,4-dihydro-2H-chromen-2-yl]benzoic acid), read-out: EC50 (with co-corrector)
[3] = CSE-HRP, with co-corrector (2 μM)
[4] = test compound without co-corrector
[5] = test compound without co-corrector, read-out: EC50 (without co-corrector)
[6] = with co-corrector (2 μM of 3-[(2R,4R)-4-({[1-(2,2-difluoro-1,3-benzodioxol-5-yl)cyclopropyl]carbonyl}amino)-7-methoxy-3,4-dihydro-2H-chromen-2-yl]benzoic acid), read-out: EC50 (with co-corrector)
[7] = with co-corrector (2 μM of 3-[(2R,4R)-4-({[1-(2,2-difluoro-1,3-benzodioxol-5-yl)cyclopropyl]carbonyl}amino)-7-methoxy-3,4-dihydro-2H-chromen-2-yl]benzoic acid)

T1 sequence (P13569 with tags, fused parts or gaps DEL508-508): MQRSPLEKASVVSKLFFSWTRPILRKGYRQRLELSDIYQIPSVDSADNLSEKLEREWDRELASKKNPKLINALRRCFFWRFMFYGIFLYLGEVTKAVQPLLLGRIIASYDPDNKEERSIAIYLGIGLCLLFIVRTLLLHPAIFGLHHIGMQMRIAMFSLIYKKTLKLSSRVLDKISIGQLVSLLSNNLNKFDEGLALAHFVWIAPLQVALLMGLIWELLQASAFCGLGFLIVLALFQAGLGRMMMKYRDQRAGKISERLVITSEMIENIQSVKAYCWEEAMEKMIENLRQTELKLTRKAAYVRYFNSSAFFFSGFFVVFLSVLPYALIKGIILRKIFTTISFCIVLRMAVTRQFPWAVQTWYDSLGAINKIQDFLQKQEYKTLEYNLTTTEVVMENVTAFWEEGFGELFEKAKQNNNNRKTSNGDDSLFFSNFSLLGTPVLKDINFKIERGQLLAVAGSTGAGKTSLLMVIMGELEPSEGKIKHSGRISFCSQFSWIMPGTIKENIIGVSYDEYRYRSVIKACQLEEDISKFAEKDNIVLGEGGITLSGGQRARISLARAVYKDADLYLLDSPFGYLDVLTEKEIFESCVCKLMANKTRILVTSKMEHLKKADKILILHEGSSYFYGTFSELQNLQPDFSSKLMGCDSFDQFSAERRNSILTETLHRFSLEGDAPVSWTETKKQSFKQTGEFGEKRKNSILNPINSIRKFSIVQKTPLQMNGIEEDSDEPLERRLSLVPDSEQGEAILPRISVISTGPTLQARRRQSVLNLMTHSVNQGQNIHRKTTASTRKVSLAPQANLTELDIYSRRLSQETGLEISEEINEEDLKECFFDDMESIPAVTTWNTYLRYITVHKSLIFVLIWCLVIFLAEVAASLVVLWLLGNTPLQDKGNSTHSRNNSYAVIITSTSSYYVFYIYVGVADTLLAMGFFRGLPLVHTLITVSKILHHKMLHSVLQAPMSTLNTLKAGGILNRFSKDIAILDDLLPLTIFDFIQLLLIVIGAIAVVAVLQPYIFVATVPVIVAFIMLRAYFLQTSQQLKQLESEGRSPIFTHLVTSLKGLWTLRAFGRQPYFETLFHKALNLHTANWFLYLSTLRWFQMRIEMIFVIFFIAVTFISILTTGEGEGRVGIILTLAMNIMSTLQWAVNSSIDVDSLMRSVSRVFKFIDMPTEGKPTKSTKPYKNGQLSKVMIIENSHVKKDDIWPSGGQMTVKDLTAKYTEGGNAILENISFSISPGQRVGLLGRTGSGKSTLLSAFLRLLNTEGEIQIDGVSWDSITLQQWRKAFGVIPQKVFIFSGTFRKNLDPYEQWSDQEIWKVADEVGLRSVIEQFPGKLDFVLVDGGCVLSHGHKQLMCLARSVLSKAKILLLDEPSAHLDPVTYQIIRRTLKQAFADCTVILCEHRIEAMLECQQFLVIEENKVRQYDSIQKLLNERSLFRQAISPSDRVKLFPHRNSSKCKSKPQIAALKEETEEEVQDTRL

Row | SMILES | EC50 [1] | EC50 [2] | Maximum % activity (with co-corrector) [3] | Emax (CSE-HRP, without co-corrector) | Emax [4] | EC50 [5] | EC50 [6] | Maximum % activity (with co-corrector) (with co-corrector (2 μM)) | Emax (without co-corrector) | Maximum % activity (with co-corrector) [7]
1 | CC(C)(C)[C@H]1[C@H](NCc2cc(C(F)(F)F)cc(C(F)(F)F)c2)[C@H](c2ccccc2)N(C(=O)C2CCCCC2)[C@@H]1C(=O)O [II-108] | 1 to 10 µM | 1 to 10 µM | +++ (≥350) | < 100% | – | – | – | – | – | –
2 | CC(C)(C)[C@H]1[C@H](NCc2ccc(F)cc2C#N)[C@H](c2ccccc2)N(C(=O)C2CCCCC2)[C@@H]1C(=O)O [III-127] | – | – | – | – | < 100% | > 10 µM | > 10 µM | + (<150) | – | –
3 | COc1ncc(C(F)(F)F)cc1CN[C@H]1[C@H](C(C)(C)C)[C@@H](C(=O)O)N(C(=O)[C@@H]2CCCCO2)[C@H]1c1ccccc1C(C)C [Example 84, (2S,3S,4S,5S)-3-tert-butyl-4-({[2-methoxy-5-(trifluoromethyl)pyridin-3-yl]methyl}amino)-1-[(2S)-oxane-2-carbonyl]-5-[2-(propan-2-yl)phenyl]pyrrolidine-2-carboxylic acid] | – | – | – | – | – | < 1 µM | < 1 µM | +++ (≥350) | > 200% | –
4 | COc1ncc(C2CCC2)cc1CN[C@H]1[C@H](C(C)(C)C)[C@@H](C(=O)O)N(C(=O)OC(C)C)[C@H]1c1ccccc1C(C)C [Example 68, (2S,3S,4S,5S)-3-tert-butyl-4-{[(5-cyclobutyl-2-methoxypyridin-3-yl)methyl]amino}-1-{[(propan-2-yl)oxy]carbonyl}-5-[2-(propan-2-yl)phenyl]pyrrolidine-2-carboxylic acid] | – | – | – | – | – | 1 to 10 µM | < 1 µM | +++ (≥350) | > 200% | –
5 | COc1nc(C(C)(C)C)ccc1CN[C@H]1[C@H](C(C)(C)C)[C@@H](C(=O)O)N(C(=O)C2CCCCC2)[C@H]1c1cccnc1OC [Example I-230] | – | – | – | – | – | 1 to 10 µM | 1 to 10 µM | +++ (≥350) | 100 to 200% | –
6 | COc1ccc(C(F)(F)F)cc1CN[C@H]1[C@H](C(C)(C)C)[C@@H](C(=O)O)N(C(=O)[C@@H]2OCC[C@@H]2C)[C@H]1c1ccccc1 (relative stereo) [II-274] | 1 to 10 µM | 1 to 10 µM | +++ (≥350) | > 200% | – | – | – | – | – | –
7 | COc1ccc(C(C)(C)C)cc1CN[C@H]1[C@H](C(C)(C)C)[C@@H](C(=O)O)N(C(=O)C2CCC(F)(F)CC2)[C@H]1c1cccnc1N(C)C [II-468] | – | – | – | – | 100 to 200% | 1 to 10 µM | 1 to 10 µM | – | – | +++ (≥350)
8 | CC(N[C@@H]1[C@@H](C(C)(C)C)[C@H](C(=O)O)N(C(=O)C2CCCCC2)[C@@H]1c1ccccc1)c1ccc2c(c1)OC(F)(F)O2 (mixture of isomers) [Example I-3] | – | – | – | – | – | > 10 µM | 1 to 10 µM | ++ (≥150 and <350) | < 100% | –
9 | COc1cc(C(F)(F)F)ccc1CN[C@@H]1[C@@H](C(C)(C)C)[C@H](C(=O)O)N(C(=O)C(C)Oc2ccccc2)[C@@H]1c1ccccc1 (single isomer, unassigned) [II-67] | 1 to 10 µM | – | ++ (≥150 and <350) | – | – | – | – | – | – | –
10 | COc1ccc(C(F)(F)F)cc1CN[C@H]1[C@H](C(C)(C)C)[C@@H](C(=O)O)N(C(=O)C(Oc2ccc(Cl)cc2)C(C)C)[C@H]1c1ccccc1 (some centres unmarked) [II-399] | – | – | – | – | 100 to 200% | < 1 µM | < 1 µM | – | – | +++ (≥350)
11 | COc1ccc(C(C)(C)C)cc1CN[C@H]1[C@H](C(C)(C)C)[C@@H](C(=O)O)N(C(=O)C2CCC2)[C@H]1c1ccccc1 [II-313] | 1 to 10 µM | 1 to 10 µM | +++ (≥350) | > 200% | – | – | – | – | – | –
12 | COc1cc(F)ccc1CN[C@@H]1[C@@H](C(C)(C)C)[C@H](C(=O)O)N(C(=O)OC(C)C)[C@@H]1c1ccccc1 (racemic) [II-39] | 1 to 10 µM | 1 to 10 µM | +++ (≥350) | 100 to 200% | – | – | – | – | – | –
13 | COc1ccc(C(C)(C)C)cc1CN[C@H]1[C@H](C(C)(C)C)[C@@H](C(=O)O)N(C(=O)Cc2c[nH]cn2)[C@H]1c1ccccc1 [Example I-98] | – | – | – | – | – | 1 to 10 µM | 1 to 10 µM | ++ (≥150 and <350) | < 100% | –
14 | CCCOC(=O)N1[C@H](C(=O)O)[C@@H](C(C)(C)C)[C@H](NCc2cc(C(C)(C)C)ccc2OC)[C@@H]1c1ccccc1 [II-390] | – | – | – | – | > 200% | 1 to 10 µM | 1 to 10 µM | – | – | +++ (≥350)
15 | COc1cc(C(F)(F)F)cc(N(C)[C@@H]2[C@@H](C(C)(C)C)[C@H](C(=O)O)N(C(=O)C3CCCCC3)[C@@H]2c2ccccc2)n1 (racemic) [III-17] | – | – | – | – | < 100% | > 10 µM | 1 to 10 µM | – | – | ++ (≥150 and <350)
16 | CCOc1cc(N[C@H]2[C@H](C(C)(C)C)[C@@H](C(=O)O)N(C(=O)C3CCCCC3)[C@H]2c2ccccc2)nc2ccccc12 [III-152] | – | – | – | – | < 100% | > 10 µM | 1 to 10 µM | ++ (≥150 and <350) | – | –
17 | COc1ccc(C(C)(C)C)cc1CN[C@H]1[C@H](C(C)(C)C)[C@@H](C(=O)O)N(C(=O)C2CCCCO2)[C@H]1c1ccccc1 (some centres unmarked) [II-318] | – | – | – | – | > 200% | 1 to 10 µM | 1 to 10 µM | – | – | +++ (≥350)
18 | COc1ccc(C(C)(C)C)cc1CN[C@H]1[C@H](C(C)(C)C)[C@@H](C(=O)O)N(C(=O)[C@H]2CCCC(F)(F)C2)[C@H]1c1ccccc1 [Example 30, (2S,3S,4S,5S)-3-tert-butyl-4-{[(5-tert-butyl-2-methoxyphenyl)methyl]amino}-1-[(1S)-3,3-difluorocyclohexane-1-carbonyl]-5-phenylpyrrolidine-2-carboxylic acid] | – | – | – | – | – | 1 to 10 µM | 1 to 10 µM | +++ (≥350) | > 200% | –
19 | COc1ccc(C(C)(C)C)cc1CN[C@@H]1[C@@H](C(C)(C)C)[C@H](C(=O)O)N(C(=O)OC(C)C)[C@@H]1c1ccccc1 (racemic) [II-43] | 1 to 10 µM | 1 to 10 µM | +++ (≥350) | > 200% | – | – | – | – | – | –
20 | CC(C)(C)[C@@H]1[C@@H](NCc2cc(S(C)(=O)=O)ccc2O)[C@@H](c2ccccc2)N(C(=O)C2CCCCC2)[C@H]1C(=O)O (racemic) [III-79] | – | – | – | – | < 100% | > 10 µM | > 10 µM | – | – | + (<150)
21 | CC(C)(C)[C@H]1[C@H](NCC2(c3ccccc3Cl)CCOCC2)[C@H](c2ccccc2)N(C(=O)C2CCCCC2)[C@@H]1C(=O)O [Example I-219] | – | – | – | – | – | 1 to 10 µM | 1 to 10 µM | +++ (≥350) | 100 to 200% | –
22 | COc1ccc(C(C)(C)C)cc1CN[C@H]1[C@H](C(C)(C)C)[C@@H](C(=O)O)N(C(=O)[C@H]2[C@H](C(F)(F)F)[C@H]3CC[C@@H]2O3)[C@H]1c1ccccc1OC(F)F (relative stereo) [Example I-223] | – | – | – | – | – | 1 to 10 µM | < 1 µM | +++ (≥350) | 100 to 200% | –
23 | COc1ccc(C(C)(C)C)cc1CN[C@H]1[C@H](C(C)(C)C)[C@@H](C(=O)O)N(C(=O)C2CC3CC3C2)[C@H]1c1ccccc1 (some centres unmarked) [Example I-186] | – | – | – | – | – | 1 to 10 µM | 1 to 10 µM | +++ (≥350) | 100 to 200% | –
24 | COc1cc(Cl)ccc1CN[C@@H]1[C@@H](C(C)(C)C)[C@H](C(=O)O)N(C(=O)OC(C)C)[C@@H]1c1cccnc1N(C)C (racemic) [II-29] | 1 to 10 µM | 1 to 10 µM | +++ (≥350) | > 200% | – | – | – | – | – | –
25 | CC(C)(C)[C@@H]1[C@@H](NCc2cccc(OC3CCOCC3)n2)[C@@H](c2ccccc2)N(C(=O)C2CCCCC2)[C@H]1C(=O)O (racemic) [III-10] | – | – | – | – | < 100% | > 10 µM | 1 to 10 µM | – | – | ++ (≥150 and <350)
26 | Cc1cc(C(F)(F)F)cc(N[C@@H]2[C@@H](C(C)(C)C)[C@H](C(=O)O)N(C(=O)C3CCC4(CC3)CC4)[C@@H]2c2ccccc2)n1 (racemic) [Example I-37] | – | – | – | – | – | > 10 µM | 1 to 10 µM | ++ (≥150 and <350) | < 100% | –
27 | Cc1cc(C(F)(F)F)cc(N[C@@H]2[C@@H](C(C)(C)C)[C@H](C(=O)O)N(C(=O)C3CCCCC3)[C@@H]2c2ccccc2)n1 (racemic) [Example 1, rac-(2R,3R,4R,5R)-3-tert-butyl-1-(cyclohexanecarbonyl)-4-{[6-methyl-4-(trifluoromethyl)pyridin-2-yl]amino}-5-phenylpyrrolidine-2-carboxylic acid] | – | – | – | – | – | 1 to 10 µM | 1 to 10 µM | +++ (≥350) | < 100% | –
28 | COc1ccc(-c2ccccc2)cc1CN[C@H]1[C@H](C(C)(C)C)[C@@H](C(=O)O)N(C(=O)C2CCCCC2)[C@H]1c1ccccc1 [Example I-48] | – | – | – | – | – | < 1 µM | < 1 µM | +++ (≥350) | > 200% | –
